The results in this text go back to article PMC9146474, “3-(((1S,3S)-3-((R)-Hydroxy(4-(trifluoromethyl)phenyl)methyl)-4-oxocyclohexyl)methyl)pentane-2,4-dione: Design and Synthesis of New Stereopure Multi-Target Antidiabetic Agent” (Molecules, 2022).

One data set addresses α-glucosidase (Saccharomyces cerevisiae, UniProt P53341). It counts as biochemical. As to the method: The α-glucosidase inhibitory activity on the S,S,R-5 was performed as per the reported protocols. […] The α-glucosidase solution (0.5 units/mL) was prepared in phosphate buffer (0.1 M, 6.90 pH). p-Nitrophenyl-α-D-glucopyranoside (5 mM) was added as substrate solution to the buffer solution. Different concentrations of the compound, i.e., 500, 250, 125, 62.5, and 31.25 μM were prepared. The enzyme solutions were mixed with the compound’s solution and were incubated for 15 min at 37 °C. To these solutions were added the pre-prepared substrate solution and the repetition of incubation. The final reaction was completed with the addition of sodium carbonate solution (0.2 M, 80 μL). The combined solution excluding the α-glucosidase was used as a blank solution. The absorbances of the solutions were recorded at 405 nm. The observations were repeated three times. The percent inhibitions at each concentration and the IC50 values were calculated according to the standard formula [48].

Data set [1] is described as follows: DPPH free radical scavenging assay (antioxidant assay). The protocol: To supplement the role of free radicals in diabetes, the free radical scavenging potential of compound S,S,R-5 was also determined as per the standard method. Different concentrations of the stereopure compound were prepared and DPPH solution in methanol (0.004%) were added to it. The solutions were incubated for half an hour. The absorbances of the solutions were recorded at 517 nm. The observations were repeated three times. The percent inhibitions at each concentration and the IC50 values were calculated according to the standard formula [52].
A general note: Loss of DPPH colour is used to gauge radical scavenging.

The subject of a further data set is albino mice. Particulars: mouse, in vivo. As to the method:
We also tested the toxicity profile of our compound S,S,R-5 by using the simple acute toxicity test in experimental albino mice. The mice were acquired and used in the animal house of our university as per the standard guidelines of the departmental ethical committee. As per the standard procedure, we gave various concentrations of compound S,S,R-5 to albino mice and observed them for the next 72 h.

Data set [2] has as its target T1, protein tyrosine phosphatase 1B (PTP-1B) (Homo sapiens, UniProt P18031).
T1 sequence (P18031 1-435): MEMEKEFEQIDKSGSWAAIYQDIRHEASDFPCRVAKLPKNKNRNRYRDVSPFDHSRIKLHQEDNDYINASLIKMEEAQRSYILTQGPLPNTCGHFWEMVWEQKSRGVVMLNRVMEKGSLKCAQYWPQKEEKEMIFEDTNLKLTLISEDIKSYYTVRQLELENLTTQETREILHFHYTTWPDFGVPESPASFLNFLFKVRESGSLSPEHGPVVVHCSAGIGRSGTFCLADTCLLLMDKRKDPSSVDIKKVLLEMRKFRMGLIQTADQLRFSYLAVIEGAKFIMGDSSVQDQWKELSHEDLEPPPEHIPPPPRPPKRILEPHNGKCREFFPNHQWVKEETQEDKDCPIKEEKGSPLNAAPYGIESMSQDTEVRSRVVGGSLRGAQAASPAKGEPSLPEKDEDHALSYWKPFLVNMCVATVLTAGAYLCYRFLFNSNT
The data set is described as follows: Protein tyrosine phosphatase 1B inhibition. The format is biochemical. To be noted: for inhibition at 31.25 µM: 31.25 μM/mL; for inhibition at 31.25 µM / inhibition at 62.5 µM / inhibition at 125 µM / inhibition at 250 µM: read-out: PTP-1B Percent Inhibition (converted); for inhibition at 62.5 µM: 62.5 μM/mL; for inhibition at 125 µM: 125 μM/mL; for inhibition at 250 µM: 250 μM/mL; for inhibition at 500 µM: 500 μM/mL. As to the method: A buffer solution with pH 7 of 3,3-dimethyl glutarate was used. […] All the solutions were incubated at 27 °C for 40 min. The absorbances of the solutions were recorded at 405 nm. The observations were repeated three times. The percent inhibitions at each concentration and the IC50 values were calculated according to the standard formula.

For a further data set, the target named is α-amylase. The data set is described as follows: In-vitro α-amylase inhibition. It counts as biochemical. As to the method: The potential of stereopure S,S,R-5 against the α-amylase was also determined as per the protocols. The enzyme solution was prepared in the phosphate buffer and was mixed with different concentrations of the compound to allow the reaction. All the solutions were incubated as per the method. Dinitrosalicylic acid was added to the compound and standard solutions. The respective solutions were heated in water baths for a few minutes. The absorbances of the solutions were recorded at 656 nm. The observations were repeated three times. The percent inhibitions at each concentration and the IC50 values were calculated according to the standard formula [50].

Setting [3] is: 500 μM/mL, listed as minor diastereomer (S,S,R-5).

Chain of α-glucosidase (P53341 whole entry): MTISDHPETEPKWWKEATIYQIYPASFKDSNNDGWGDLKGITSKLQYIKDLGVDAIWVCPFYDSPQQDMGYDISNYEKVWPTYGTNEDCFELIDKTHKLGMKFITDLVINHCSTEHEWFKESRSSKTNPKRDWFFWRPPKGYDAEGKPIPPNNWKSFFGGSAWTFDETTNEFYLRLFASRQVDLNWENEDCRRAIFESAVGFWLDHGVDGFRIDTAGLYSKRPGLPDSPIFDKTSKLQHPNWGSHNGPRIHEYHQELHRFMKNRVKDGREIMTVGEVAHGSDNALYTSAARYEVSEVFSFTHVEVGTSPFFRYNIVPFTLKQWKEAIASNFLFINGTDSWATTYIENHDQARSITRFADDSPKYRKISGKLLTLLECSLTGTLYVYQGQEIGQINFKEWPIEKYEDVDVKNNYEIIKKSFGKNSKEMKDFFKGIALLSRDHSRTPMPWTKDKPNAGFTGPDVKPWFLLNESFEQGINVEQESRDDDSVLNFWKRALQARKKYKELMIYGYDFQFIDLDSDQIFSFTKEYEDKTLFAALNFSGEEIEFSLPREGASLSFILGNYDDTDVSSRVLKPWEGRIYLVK

Regarding `C[C@H]1O[C@H](O[C@H]2[C@H](O)[C@@H](O)[C@@H](O[C@H]3[C@H](O)[C@@H](O)C(O)O[C@@H]3CO)O[C@@H]2CO)[C@H](O)[C@@H](O)[C@@H]1N[C@H]1C=C(CO)[C@@H](O)[C@H](O)[C@H]1O` (some centres unmarked) [Acarbose], on α-glucosidase, the “α-Glucosidase % Inhibition” value was 95.20 ± 0.15 91.17 ± 0.53 86.98 ± 0.85 81.20 ± 0.65 77.80 ± 0.37% and the “α-Glucosidase Percent Inhibition” value is 95.20 ± 0.15 91.17 ± 0.53 86.98 ± 0.85 81.20 ± 0.65 77.80 ± 0.37%.

Usually IC50 stands for the concentration that gives 50% inhibition. A high value points to weaker potency in that assay. In general, inhibition refers to how much of the control response was suppressed. As for `CC(=O)C(C[C@H]1CCC(=O)[C@H]([C@@H](O)c2ccc(C(F)(F)F)cc2)C1)C(C)=O` [S,S,R-5, 3-(((1S,3S)-3-((R)-hydroxy(4-(trifluoromethyl)phenyl)methyl)-4-oxocyclohexyl)methyl)pentane-2,4-dione], the values for the IC50 (in data set [1]; in data set [2]; at α-amylase) were 2360 ± 100 nM, 910 ± 100 nM and 4580 ± 140 nM, respectively. Moreover, the “DPPH Percent Inhibition” value in data set [1] (31.25 μM/mL) was determined as 71.90 ± 0.45%; in data set [1] (62.5 μM/mL), 76.00 ± 0.30%; in data set [1] (125 μM/mL), 81.90 ± 0.60%; in data set [1] (250 μM/mL) it was 87.45 ± 0.90%. Moreover, in the data set on albino mice, the “Acute toxicity: behavioral changes or lethality” value is given as “no unwanted behavioral changes or lethality”. Besides, in data set [2], the inhibition at 31.25 µM is 73.7%. In addition, the inhibition at 62.5 µM in data set [2] is 76.2%. Also, the inhibition at 125 µM in data set [2] was 79.6%. In data set [2], the inhibition at 250 µM is 84.4%. The “α-Amylase Percent Inhibition” value is 58.47 ± 0.56% in the data set on α-amylase (31.25 μM/mL), 62.28 ± 0.57% in the data set on α-amylase (62.5 μM/mL), 68.90 ± 0.96% in the data set with α-amylase (125 μM/mL) and 73.08 ± 0.47% in the data set on α-amylase (250 μM/mL).

For the compound `C[C@H]1[C@H](C)CC[C@]2(C(=O)O)CC[C@]3(C)C(=CC[C@@H]4[C@@]5(C)CC[C@H](O)C(C)(C)[C@@H]5CC[C@]43C)[C@H]12` [Ursolic acid, reference compound], in data set [2], the inhibition at 31.25 µM was 76%, the inhibition at 62.5 µM was 78.3%, the inhibition at 125 µM is 82.3% and the inhibition at 250 µM is 87.2%. The same compound yielded an inhibition at 500 µM in data set [2] of 90.83 ± 0.47%.

With `CC(=O)C(CC1CCC(=O)C(C(O)c2ccc(C(F)(F)F)cc2)C1)C(C)=O` [minor (S,S,R-5)], the “DPPH % Inhibition” value in data set [1] (setting [3]) came to 70.21%. The compound further showed an inhibition at 500 µM in data set [2] of 65.4%. In addition, the “α-Amylase % Inhibition” value in the data set with α-amylase (setting [3]) stood at 72.65%.
